Experimental data published in patent US4898855A, “Deuterated analogs of 1,25-dihydroxycholecalciferol” (Hoffman-La Roche Inc., priority 1987, dated 1990).
Read-outs that look alike come from different tables or passages of the source.

Tests used:
[1] = system: porcine growth-plate cartilage; assay: Stimulation of porcine cartilage growth in vitro (organ culture of fetal pig scapula growth-plates); assay type: cell-based; conditions: for Porcine cartilage in vitro, % increase, dry weight: 14-17 days incubation
Description: Organ cultures of growth-plates from the scapula cartilages of fetal pigs were performed using methods previously described. (Burch WM, Lebovitz HE (1982) "Triiodothyronine stimulates maturation of porcine growth-plate cartilage in vitro." J. Clin. Investig. (70: 496.) Growth-plates (n=12/treatment group) were isolated aseptically, wet weight obtained, and then placed into individuals wells of 24 well-plastic culture plates. Growth-plates were incubated in 1.5 ml of MEM (Joklik-Modified) containing 0.5% BSA for 14-17 days. The medium was changed and fresh additives introduced every 4-5 days. This medium (MEM) was chosen because it contained antibiotics which allowed relatively long-term culture without contamination. BGJb. (Fitton-Jackson modification) medium with addition of antibiotics has also been used with similar results. At the end of the incubation, growth-plates were weighed for wet weight, then air dried for dry weight. The change in growth-plate wet weights were determined and the cartilages were photographed.

[2] = system: intestinal ^45 Ca transport (ICA); assay: Stimulation of intestinal calcium absorption in rat (everted gut sac); assay type: in vivo; conditions: 12.5 ng/rat intrajugularly, 18 hours after injection, vitamin D-deficient low calcium diet
Bone Ca resorption (BCR) = assay: Bone calcium mobilization in rat (plasma Ca increase); assay type: in vivo; conditions: 12.5 ng/rat intrajugularly, 18 hours after injection, vitamin D-deficient low calcium diet
Description: Male weanling rats (Holtzman, Madison WI.) were housed individually in overhanging wire cages and were fed a vitamin D-deficient diet containing low calcium (0.005%) and normal phosphorus (0.3%). Test compounds were dissolved in 10-20 μl of ethanol. Plasma (1.8 ml), collected from vitamin D, deficient rats was added to the ethanol solution. The test compounds were given intrajugularly in 0.3 ml of the ethanol-plasma carrier solution. Controls received carrier alone.
Bone Ca resorption (BCR) was estimated by mesuring the blood Ca increase in the treated rats. Blood was collected in heparinized tubes and centrifuged. The resulting plasma was measured for calcium concentration by atomic absorption spectroscopy. Since rats were fed a diet essentially devoid of Ca, plasma Ca increases reflected mobilization of Ca from bone, not intestinal Ca absorption.

vitamin D deficient rats = assay type: in vivo, rat; conditions: for Bone Mass: histomorphometric
Description: Rats were placed on the following protocol. […]
Ten 3 week old rats were maintained on vitamin D3 deficient diet for 6 weeks.
The following parameters in Table III were evaluated, by means which are conventional in the art, after completion the above treatments. Bone mass is measured by known histomorphometric methods.

[3] = system: embryonic chick pelvic cartilage; assay: Stimulation of avian cartilage growth in vitro (organ culture of embryonic chick pelvic cartilage); conditions: for Avian cartilage in vitro, % increase, dry weight: 3-day incubation
[4] = high dose: daily 60 ng 1,25-(OH)2 D3 or 66 ng Hexa ^2 H, 3 weeks, vitamin D3 deficient diet
[5] = low dose: daily 15 ng 1,25-(OH)2 D3 or 16.5 ng Hexa ^2 H, 3 weeks, vitamin D3 deficient diet

Row | Compound | Porcine cartilage in vitro, % increase, ^3 H ([1]; 10^-10 M) | Porcine cartilage in vitro, % increase, ^35 S ([1]; 10^-10 M) | Porcine cartilage in vitro, % increase, dry weight ([1]; 10^-10 M) | Porcine cartilage in vitro, % increase, ^3 H ([1]; 10^-11 M) | Porcine cartilage in vitro, % increase, ^35 S ([1]; 10^-11 M) | Porcine cartilage in vitro, % increase, dry weight ([1]; 10^-11 M) | % of 1,25-(OH)2 D3 effect in rat, intestinal calcium absorption [2] | % of 1,25-(OH)2 D3 effect in rat, bone calcium mobilization (Bone Ca resorption (BCR)) | Body Weight (vitamin D deficient rats; [4]) | Serum Creatinine (vitamin D deficient rats; [4]) | Bone Mass (vitamin D deficient rats; [4]) | Body Weight (vitamin D deficient rats; [5]) | Serum Ca^2+ (vitamin D deficient rats; [5]) | Serum Creatinine (vitamin D deficient rats; [5]) | Bone Mass (vitamin D deficient rats; [5]) | Avian cartilage in vitro, % increase, ^35 S ([3]; 10^-9 M) | Avian cartilage in vitro, % increase, dry weight ([3]; 10^-9 M) | Avian cartilage in vitro, % increase, dry weight ([3]; 10^-10 M) | Avian cartilage in vitro, % increase, dry weight ([3]; 10^-11 M) | Avian cartilage in vitro, % increase, dry weight ([3]; 10^-12 M) | also measured
1 | [2H]C([2H])([2H])C(O)(CCC[C@@H](C)[C@H]1CC[C@H]2/C(=C/C=C3/C[C@@H](O)C[C@H](O)C3=C)CCC[C@]12C)C([2H])([2H])[2H] [1,25-(OH)2 D3 -Hexa^2 H, 26,26,26,27,27,27-hexadeutero-1α,25-dihydroxycholecalciferol] | 215.7% | 466.0% | 57.6% | 123.6% | 203.2% | 40.9% | 92% | 64% | 163 ± 7.2 gr | 0.36 ± 0.04 mg/dL | 371 ± 68 ^mm.spsp.3 /cm^3 | 193 ± 5 gr | 11.28 ± 0.26 mg/dL | 0.36 ± 0.02 mg/dL | 288 ± 58 ^mm.spsp.3 /cm^3 | 41.0% | 35.3% | 29.1% | 29.8% | 31.2% | Porcine cartilage in vitro, % increase, dry weight ([1]; 10^-12 M): 31.5%; Porcine cartilage in vitro, % increase, dry weight ([1]; 10^-13 M): 29.5%; Serum Ca^2+ (vitamin D deficient rats; [4]): 11.20 ± 0.28 mg/dL; activity in increasing bone mass compared with 1,25-(OH)2 D3 (vitamin D deficient rats; summary of Table III): more active than 1,25-(OH)2 D3; activity in inducing hypercalcemia compared with 1,25-(OH)2 D3 (serum Ca^2+) (vitamin D deficient rats; summary of Table III): not as active as 1,25-(OH)2 D3; Avian cartilage in vitro, % increase, ^3 H proline ([3]; 10^-9 M): 148.3%; Avian cartilage in vitro, % increase, ^3 H proline ([3]; 10^-10 M): 145.4%; Avian cartilage in vitro, % increase, ^3 H thymidine ([3]; 10^-10 M): 44.3%; Avian cartilage in vitro, % increase, ^35 S ([3]; 10^-10 M): 30.1%; Avian cartilage in vitro, % increase, ^3 H proline ([3]; 10^-11 M): 131.4%; Avian cartilage in vitro, % increase, ^35 S ([3]; 10^-11 M): 26.3%; Avian cartilage in vitro, % increase, ^3 H proline ([3]; 10^-12 M): 65.0%; Avian cartilage in vitro, % increase, ^3 H thymidine ([3]; 10^-12 M): 62.5%; Avian cartilage in vitro, % increase, ^3 H proline ([3]; 10^-13 M): 36.0%; Avian cartilage in vitro, % increase, ^3 H thymidine ([3]; 10^-13 M): 57.9%; Avian cartilage in vitro, % increase, ^35 S ([3]; 10^-13 M): 21.5%; Avian cartilage in vitro, % increase, dry weight ([3]; 10^-13 M): 20.5%
2 | [2H]C([2H])([2H])C(O)(C([2H])([2H])[2H])C([2H])([2H])CC[C@@H](C)[C@H]1CC[C@H]2/C(=C/C=C3/C[C@@H](O)C[C@H](O)C3=C)CCC[C@]12C [1,25-(OH)2 D3 -Octa^2 H, 24,24,26,26,26,27,27,27-octadeutero-1α,25-dihydroxycholecalciferol] | 75% | 410% | 50% | 20% | 95% | 42% | – | 147% | – | – | – | – | – | – | – | 10.8% | 28.0% | 21.6% | 17.0% | 10.3% | Porcine cartilage in vitro, % increase, ^3 H ([1]; 10^-9 M): 150%; Porcine cartilage in vitro, % increase, ^35 S ([1]; 10^-9 M): 490%; Porcine cartilage in vitro, % increase, dry weight ([1]; 10^-9 M): 60%; Avian cartilage in vitro, % increase, ^3 H thymidine ([3]; 10^-10 M): 25.0%; Avian cartilage in vitro, % increase, ^3 H thymidine ([3]; 10^-11 M): 20.7%; Avian cartilage in vitro, % increase, ^3 H thymidine ([3]; 10^-12 M): 15.3%
3 | C=C1/C(=C\C=C2/CCC[C@]3(C)[C@@H]([C@H](C)CCCC(C)(C)O)CC[C@@H]23)C[C@@H](O)C[C@@H]1O [1,25-(OH)2 D3, 1α,25-dihydroxycholecalciferol, reference compound] | 0% | 0% | 0% | 0% | 0% | 0% | 100% | 100% | 156 ± 15 gr | 0.35 ± 0.02 mg/dL | 296 ± 56 ^mm.spsp.3 /cm^3 | 192 ± 4.5 gr | 11.87 ± 0.16 mg/dL | 0.37 ± 0.04 mg/dL | 156 ± 16 ^mm.spsp.3 /cm^3 | – | 31.8% | 27.2% | 24.1% | 22.6% | Porcine cartilage in vitro, % increase, ^3 H ([1]; 10^-9 M): 300%; Porcine cartilage in vitro, % increase, ^35 S ([1]; 10^-9 M): 280%; Porcine cartilage in vitro, % increase, dry weight ([1]; 10^-9 M): 49%; Serum Ca^2+ (vitamin D deficient rats; rat, in vivo): 11.92 ± 0.40 mg/dL; Avian cartilage in vitro, % increase, ^3 H proline ([3]; 10^-10 M): 122%; Avian cartilage in vitro, % increase, ^35 S ([3]; 10^-10 M): 21.8%; Avian cartilage in vitro, % increase, ^3 H proline ([3]; 10^-11 M): 68.3%; Avian cartilage in vitro, % increase, ^35 S ([3]; 10^-11 M): 13.8%; Avian cartilage in vitro, % increase, ^3 H proline ([3]; 10^-12 M): 46.3%; Avian cartilage in vitro, % increase, ^35 S ([3]; 10^-12 M): 8.6%
